Results taken from patent publication US8927571B2, “Pyrido[4,3-B]indoles and methods of use” (Medivation Technologies, Inc., priority 2009, dated 2015).

Legend:
[1] = target: T1, human recombinant serotonin (5-Hydroxytryptamine) 5-HT2C receptor (Homo sapiens, UniProt P28335); assay: Serotonin 5-HT2C radioligand binding assay ([3H]Mesulergine); settings: 1 nM [3H]Mesulergine, read-out: Percent Inhibition of ligand binding, Serotonin (1 μM) 5-HT2C
T1 construct: expressed in transfected cells; host or cells: Chinese hamster ovary (CHO-K1) cells
T1 sequence (P28335 33-458): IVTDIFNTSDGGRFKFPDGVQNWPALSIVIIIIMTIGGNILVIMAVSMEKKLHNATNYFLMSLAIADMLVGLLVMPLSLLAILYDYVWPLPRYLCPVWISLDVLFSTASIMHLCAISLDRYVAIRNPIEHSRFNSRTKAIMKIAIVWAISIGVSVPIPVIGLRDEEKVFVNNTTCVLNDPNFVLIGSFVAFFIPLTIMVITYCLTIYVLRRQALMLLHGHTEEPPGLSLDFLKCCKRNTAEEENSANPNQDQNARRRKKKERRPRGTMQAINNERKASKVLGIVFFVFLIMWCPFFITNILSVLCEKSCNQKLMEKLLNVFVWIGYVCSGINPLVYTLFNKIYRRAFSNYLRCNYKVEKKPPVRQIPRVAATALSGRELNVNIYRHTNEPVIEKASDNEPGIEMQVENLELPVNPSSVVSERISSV
Protocol: Compounds of the invention were incubated with 1 nM [^3H]Mesulergine for 60 min at 25° C. Non-specific binding was estimated in the presence of 1 μM Mianserin. Receptor proteins were filtered and washed, the filters were then counted to determine [^3H]Mesulergine specifically bound. Compounds were screened at 1 μM or lower, using 1% DMSO as vehicle. Biochemical assay results are presented as the percent inhibition of specific binding in Table 4.

[2] = target: T2, human recombinant adrenergic α2A receptor (Homo sapiens, UniProt P08913); assay: Adrenergic α2A radioligand binding assay ([3H]MK-912); settings: 1 nM [3H]MK-912, read-out: Percent Inhibition of ligand binding, Adrenergic (1 μM) α2A
T2 construct: expressed in transfected cells; host or cells: insect Sf9 cells
T2 sequence (P08913 1-465): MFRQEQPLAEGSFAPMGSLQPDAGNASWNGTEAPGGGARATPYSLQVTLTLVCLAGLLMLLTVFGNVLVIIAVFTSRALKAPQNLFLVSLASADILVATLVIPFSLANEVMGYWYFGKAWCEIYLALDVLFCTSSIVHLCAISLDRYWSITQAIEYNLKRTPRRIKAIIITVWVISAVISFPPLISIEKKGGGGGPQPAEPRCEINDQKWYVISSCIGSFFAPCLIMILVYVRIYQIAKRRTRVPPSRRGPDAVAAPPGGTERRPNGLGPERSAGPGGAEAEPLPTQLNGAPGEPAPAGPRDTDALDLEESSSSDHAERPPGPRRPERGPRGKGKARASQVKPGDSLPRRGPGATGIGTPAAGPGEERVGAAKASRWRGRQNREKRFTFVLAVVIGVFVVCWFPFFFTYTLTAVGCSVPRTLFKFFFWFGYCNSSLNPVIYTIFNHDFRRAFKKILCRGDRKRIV
Protocol: To evaluate in radioligand binding assays the activity of compounds of the invention, human recombinant adrenergic α2A receptor expressed in insect Sf9 cells (Uhlen S et al. J. Pharmacol. Exp. Ther. 271:1558, 1994) in a modified Tris-HCl buffer (50 mM Tris-HCl, pH 7.4, 12.5 mM MgCl2, 2 mM EDTA) was used. Compounds of invention were incubated with 1 nM [^3H]MK-912 for 60 min at 25° C. MK912 is (2S-trans)-1,3,4,5′,6,6′,7,12b-octahydro-1′,3′-dimethyl-spiro[2H-benzofuro[2,3-a]quinolizine-2,4′(1′H)-pyrimidin]-2′(3′H)-one hydrochloride Non-specific binding was estimated in the presence of 10 μM WB-4101 (2-(2,6-dimethoxyphenoxyethyl) aminomethyl-1,4-benzodioxane hydrochloride). Receptor proteins were filtered and washed, the filters were then counted to determine [^3H]MK-912 specifically bound. Compounds were screened at 1 μM or lower, using 1% DMSO as vehicle. Biochemical assay results are presented as the percent inhibition of specific binding in Table 3.

[3] = target: human recombinant dopamine D2L receptor (Homo sapiens, UniProt P14416); assay: Dopamine D2L radioligand binding assay ([3H]Spiperone); settings: for inhibition at 1 µM: read-out: Percent Inhibition of ligand binding, Dopamine (1 μM) D2L
human recombinant dopamine D2L receptor, sequence (P14416 whole entry): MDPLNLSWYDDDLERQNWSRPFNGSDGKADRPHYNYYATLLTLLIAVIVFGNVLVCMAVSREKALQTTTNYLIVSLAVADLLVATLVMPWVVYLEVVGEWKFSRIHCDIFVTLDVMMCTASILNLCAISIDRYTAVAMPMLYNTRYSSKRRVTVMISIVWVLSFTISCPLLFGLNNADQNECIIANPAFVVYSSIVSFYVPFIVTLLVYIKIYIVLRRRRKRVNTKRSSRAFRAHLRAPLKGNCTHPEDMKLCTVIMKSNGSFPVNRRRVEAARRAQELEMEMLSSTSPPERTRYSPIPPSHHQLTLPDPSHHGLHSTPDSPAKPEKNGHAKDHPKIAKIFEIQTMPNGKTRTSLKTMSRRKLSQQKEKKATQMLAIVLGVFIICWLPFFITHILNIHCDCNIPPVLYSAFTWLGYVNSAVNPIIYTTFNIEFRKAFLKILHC
Protocol: Compounds of the invention were incubated with 0.16 nM [^3H]Spiperone for 120 min at 25° C. Non-specific binding was estimated in the presence of 10 μM Haloperidol. Receptor proteins were filtered and washed, the filters were then counted to determine [^3H]Spiperone specifically bound. Compounds were screened at 1 μM or lower, using 1% DMSO as vehicle. Biochemical assay results are presented as the percent inhibition of specific binding in Table 3.

[4] = target: T3, human recombinant adrenergic α2B receptor (Homo sapiens, UniProt P18089); assay: Adrenergic α2B radioligand binding assay ([3H]Rauwolscine); settings: 2.5 nM [3H]Rauwolscine, read-out: Percent Inhibition of ligand binding, Adrenergic (1 μM) α2B
T3 construct: expressed in transfected cells; host or cells: Chinese hamster ovary (CHO-K1) cells
T3 sequence (P18089 1-450): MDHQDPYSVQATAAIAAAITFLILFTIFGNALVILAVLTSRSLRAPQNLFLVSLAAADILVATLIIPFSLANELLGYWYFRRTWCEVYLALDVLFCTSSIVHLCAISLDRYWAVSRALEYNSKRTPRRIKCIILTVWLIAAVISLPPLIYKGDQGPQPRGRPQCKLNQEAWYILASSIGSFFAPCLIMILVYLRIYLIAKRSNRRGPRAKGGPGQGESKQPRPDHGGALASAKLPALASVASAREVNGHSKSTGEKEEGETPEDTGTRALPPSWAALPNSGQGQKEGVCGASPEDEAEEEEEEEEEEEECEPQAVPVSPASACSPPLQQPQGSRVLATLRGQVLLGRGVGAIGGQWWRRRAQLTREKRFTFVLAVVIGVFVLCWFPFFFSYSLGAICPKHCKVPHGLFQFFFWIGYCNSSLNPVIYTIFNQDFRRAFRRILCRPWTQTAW
Protocol: To evaluate in radioligand binding assays the activity of compounds of the invention, human recombinant adrenergic α2B receptor expressed in Chinese hamster ovary (CHO-K1) cells (Uhlen S et al. Eur. J. Pharmacol. 343(1):93, 1998) in a modified Tris-HCl buffer (50 mM Tris-HCl, pH 7.4, 12.5 mM MgCl2, 1 mM EDTA, 0.2% BSA) was used. Compounds of the invention were incubated with 2.5 nM [^3H]Rauwolscine for 60 min at 25° C. Non-specific binding was estimated in the presence of 10 μM Prozosin. Receptor proteins were filtered and washed, the filters were then counted to determine [^3H]Rauwolscine specifically bound. Compounds were screened at 1 μM or lower, using 1% DMSO as vehicle. Biochemical assay results are presented as the percent inhibition of specific binding in Table 3.

Row | SMILES | inhibition at 1 µM [1] | inhibition at 1 µM [2] | inhibition at 1 µM [3] | inhibition at 1 µM [4] | Percent Inhibition of ligand binding, Dopamine (1 μM) D2L [3]
1 | CN1CCc2c(c3cc(Cl)ccc3n2CC2(c3ccc(F)cc3)OCCO2)C1 [Compound 4, 8-chloro-5-((2-(4-fluorophenyl)-1,3-dioxolan-2-yl)methyl)-2-methyl-2,3,4,5-tetrahydro-1H-pyrido[4,3-b]indole] | 101% | 95% | 58% | 103% | –
2 | CN1CCc2c(c3cc(Cl)ccc3n2CC2(c3ccc(Cl)cc3)OCCO2)C1 [Compound 5, 8-chloro-5-((2-(4-chlorophenyl)-1,3-dioxolan-2-yl)methyl)-2-methyl-2,3,4,5-tetrahydro-1H-pyrido[4,3-b]indole] | 100% | 95% | 53% | 97% | –
3 | Cc1ccc2c(c1)c1c(n2CC2(c3ccc(F)cc3)OCCO2)CCN(C)C1 [Compound 3, 5-((2-(4-fluorophenyl)-1,3-dioxolan-2-yl)methyl)-2,8-dimethyl-2,3,4,5-tetrahydro-1H-pyrido[4,3-b]indole] | 93% | 92% | 45% | 106% | –
4 | CCOC(=O)CC(Cn1c2c(c3cc(C)ccc31)CN(C)CC2)c1ccc(F)cc1 (centres unmarked) [Compound 6, ethyl 4-(2,8-dimethyl-3,4-dihydro-1H-pyrido[4,3-b]indol-5(2H)-yl)-3-(4-fluorophenyl)butanoate] | 93% | 95% | 24% | 95% | 31%
5 | CNC(=O)CC(Cn1c2c(c3cc(C)ccc31)CN(C)CC2)c1ccc(F)cc1 (centres unmarked) [Compound 8, 4-(2,8-dimethyl-3,4-dihydro-1H-pyrido[4,3-b]indol-5(2H)-yl)-3-(4-fluorophenyl)-N-methylbutanamide] | 95% | 63% | 14% | 72% | –
6 | Cc1ccc2c(c1)c1c(n2CC2(c3ccccc3)OCCO2)CCN(C)C1 [Compound 2, 2,8-dimethyl-5-((2-phenyl-1,3-dioxolan-2-yl)methyl)-2,3,4,5-tetrahydro-1H-pyrido[4,3-b]indole] | 96% | 91% | 51% | 103% | –
7 | Cc1ccc2c(c1)c1c(n2CC(CC(=O)O)c2ccc(F)cc2)CCN(C)C1 (centres unmarked) [Compound 7, 4-(2,8-dimethyl-3,4-dihydro-1H-pyrido[4,3-b]indol-5(2H)-yl)-3-(4-fluorophenyl)butanoic acid] | 14% | 9% | -10% | 12% | –
